Here are results for 30 molecules from patent US9540366B2, “Ring-fused heterocyclic compound” (Kyowa Hakko Kirin Co., Ltd., priority 2012, dated 2017).

Like-named read-outs stand apart in the source and are kept apart here.

The assay concerns the target T1, human Cav3.2 T-type Ca2+ channel (Homo sapiens, UniProt O95180).
T1 construct: expressed in transfected cells; host or cells: KJMGER8 cells (Namalwa cell-derived cell line)
The experiment in a line: Inhibitory effect for intracellular calcium response via Cav3.2 T-type Ca2+ channels (FLIPR Calcium 3 Assay Kit). It counts as cell-based. A general note: Calcium assays in cells follow changes in intracellular calcium, usually with a dye or a luminescent sensor.

[1] abbreviates: human Cav3.2-expressing KJMGER8 cells (Namalwa-derived), calcium response induced by 5 mmol/L CaCl2, 3 μmol/L mibefradil as reference, read-out: IC50 for the human Cav3.2 T-type Ca2+ current.

T1 sequence (O95180 whole entry): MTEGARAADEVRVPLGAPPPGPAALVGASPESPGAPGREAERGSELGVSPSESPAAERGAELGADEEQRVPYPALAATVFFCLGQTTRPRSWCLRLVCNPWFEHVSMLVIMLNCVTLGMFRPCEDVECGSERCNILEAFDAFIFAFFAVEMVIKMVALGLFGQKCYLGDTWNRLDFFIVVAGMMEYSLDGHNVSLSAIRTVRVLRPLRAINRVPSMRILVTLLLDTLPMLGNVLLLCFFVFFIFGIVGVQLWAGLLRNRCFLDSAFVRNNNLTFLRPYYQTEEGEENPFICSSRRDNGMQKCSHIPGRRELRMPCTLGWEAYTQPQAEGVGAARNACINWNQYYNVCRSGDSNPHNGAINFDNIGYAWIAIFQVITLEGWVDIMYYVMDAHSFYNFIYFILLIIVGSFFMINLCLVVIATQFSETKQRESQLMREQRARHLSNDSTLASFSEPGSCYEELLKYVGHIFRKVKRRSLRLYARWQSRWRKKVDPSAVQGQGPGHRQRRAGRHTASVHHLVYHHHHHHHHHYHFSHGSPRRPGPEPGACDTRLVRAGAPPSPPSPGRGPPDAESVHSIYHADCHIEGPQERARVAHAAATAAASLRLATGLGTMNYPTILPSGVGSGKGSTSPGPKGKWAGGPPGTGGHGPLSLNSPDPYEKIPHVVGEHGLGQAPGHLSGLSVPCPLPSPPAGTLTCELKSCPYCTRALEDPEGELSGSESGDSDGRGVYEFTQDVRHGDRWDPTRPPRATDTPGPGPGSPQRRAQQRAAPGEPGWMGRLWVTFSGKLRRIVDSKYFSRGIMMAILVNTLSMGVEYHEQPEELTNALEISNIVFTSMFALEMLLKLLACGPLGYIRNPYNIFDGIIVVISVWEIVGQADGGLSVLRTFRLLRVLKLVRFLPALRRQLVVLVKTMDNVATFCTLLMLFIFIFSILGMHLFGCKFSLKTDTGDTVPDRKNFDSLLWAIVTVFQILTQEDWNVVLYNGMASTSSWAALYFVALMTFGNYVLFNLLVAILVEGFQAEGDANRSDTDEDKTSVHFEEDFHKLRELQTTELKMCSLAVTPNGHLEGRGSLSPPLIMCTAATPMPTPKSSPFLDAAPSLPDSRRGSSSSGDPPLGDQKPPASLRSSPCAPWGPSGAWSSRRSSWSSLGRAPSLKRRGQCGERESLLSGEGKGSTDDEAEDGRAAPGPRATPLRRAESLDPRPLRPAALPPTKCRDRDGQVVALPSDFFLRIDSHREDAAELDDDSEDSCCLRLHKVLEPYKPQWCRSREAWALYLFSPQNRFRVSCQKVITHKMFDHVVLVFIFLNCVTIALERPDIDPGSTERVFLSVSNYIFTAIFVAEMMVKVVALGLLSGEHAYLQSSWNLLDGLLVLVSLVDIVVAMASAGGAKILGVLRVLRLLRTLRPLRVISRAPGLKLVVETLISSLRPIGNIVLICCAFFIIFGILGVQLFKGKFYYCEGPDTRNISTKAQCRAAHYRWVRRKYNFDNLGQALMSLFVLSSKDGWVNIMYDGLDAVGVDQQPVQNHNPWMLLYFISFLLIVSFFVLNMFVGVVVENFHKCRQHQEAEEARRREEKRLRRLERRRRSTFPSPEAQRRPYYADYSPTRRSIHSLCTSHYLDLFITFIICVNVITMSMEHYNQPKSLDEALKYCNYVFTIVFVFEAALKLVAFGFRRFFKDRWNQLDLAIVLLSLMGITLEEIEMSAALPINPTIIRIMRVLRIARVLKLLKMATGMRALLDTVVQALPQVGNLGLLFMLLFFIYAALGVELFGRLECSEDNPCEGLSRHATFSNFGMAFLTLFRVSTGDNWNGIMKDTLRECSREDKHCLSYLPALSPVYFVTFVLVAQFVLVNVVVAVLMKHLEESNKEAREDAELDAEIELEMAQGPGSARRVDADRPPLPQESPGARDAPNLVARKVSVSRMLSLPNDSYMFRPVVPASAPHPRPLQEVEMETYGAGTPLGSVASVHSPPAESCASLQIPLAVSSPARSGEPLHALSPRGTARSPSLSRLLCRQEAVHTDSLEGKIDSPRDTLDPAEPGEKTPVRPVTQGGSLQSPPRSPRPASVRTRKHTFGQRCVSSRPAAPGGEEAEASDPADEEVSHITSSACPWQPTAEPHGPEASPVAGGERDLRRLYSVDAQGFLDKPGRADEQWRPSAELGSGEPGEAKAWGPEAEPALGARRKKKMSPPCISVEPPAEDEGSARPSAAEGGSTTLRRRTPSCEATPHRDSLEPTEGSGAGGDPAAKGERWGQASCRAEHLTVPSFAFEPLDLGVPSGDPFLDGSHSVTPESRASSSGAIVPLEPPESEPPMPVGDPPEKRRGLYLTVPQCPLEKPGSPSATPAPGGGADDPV

Usually IC50 stands for the point on the concentration scale where inhibition reaches its midpoint. `O=C(NCCN(CCO)CCO)c1cc(Cl)n2c(CC3CCC(F)(F)CC3)c(C(F)(F)F)nc2c1` [Compound 109, N-{2-[Bis(2-hydroxyethyl)amino]ethyl}-5-chloro-3-[(4,4-difluorocyclohexyl)methyl]-2-(trifluoromethyl)imidazo[1,2-a]pyridine-7-carboxamide]: the concentration for half-maximal inhibition (IC50) under setting [1] is not above 100 nM.

Turning to `Cc1cc(C(=O)NC2CCOCC2)cc2nc(C(C)C)c(Cc3ccc(Cl)cc3)n12` [Compound 224, 3-(4-Chlorobenzyl)-2-isopropyl-5-methyl-N-(tetrahydro-2H-pyran-4-yl)imidazo[1,2-a]pyridine-7-carboxamide], the IC50 was not above 100 nM.

Turning to `CCOC(=O)CNC(=O)c1cc(Cl)n2c(CC3CCC(F)(F)CC3)c(C(F)(F)F)nc2c1` [Compound 110, Ethyl 2-{5-chloro-3-[(4,4-difluorocyclohexyl)methyl]-2-(trifluoromethyl)imidazo[1,2-a]pyridine-7-carboxamide}acetate], the IC50 is not above 100 nM.

For the molecule `CCOC(=O)C(=O)CNC(=O)c1cc(C)n2c(CC3CCC(F)(F)CC3)c(C(F)(F)F)nc2c1` [Compound 124, Ethyl 3-{3-[(4,4-difluorocyclohexyl)methyl]-5-methyl-2-(trifluoromethyl)imidazo[1,2-a]pyridine-7-carboxamide}-2-oxopropanoate], the IC50 was not above 100 nM.

Take `CC(C)(C)NC(=O)c1cc(C#N)n2c(CC3CCC(F)(F)CC3)c(C(F)(F)F)nc2c1` [Compound 198, N-tert-Butyl-5-cyano-3-[(4,4-difluorocyclohexyl)methyl]-2-(trifluoromethyl)imidazo[1,2-a]pyridine-7-carboxamide]: under setting [1], the half-inhibitory concentration (IC50) is not above 100 nM.

For the molecule `[2H]C([2H])([2H])OC(C)(C)c1nc2cc(C(=O)NC3CCOCC3)cc(C)n2c1CC1CCC(F)(F)CC1` [Compound 11, 3-[(4,4-Difluorocyclohexyl)methyl]-2-(2-methoxy-d3-propan-2-yl)-5-methyl-N-(tetrahydro-2H-pyran-4-yl)imidazo[1,2-a]pyridine-7-carboxamide], the 50% inhibitory concentration (IC50) is not above 100 nM.

Consider `Cc1cc(C(=O)NC2CCC3(CC2)COC3)cc2nc(C(F)(F)F)c(CC3CCC(F)(F)CC3)n12` [Compound 126, 3-[(4,4-Difluorocyclohexyl)methyl]-5-methyl-N-(2-oxaspiro[3.5]nonan-7-yl)-2-(trifluoromethyl)imidazo[1,2-a]pyridine-7-carboxamide], for which the IC50 under setting [1] was not above 100 nM.

Consider `O=C(NC1CC(CO)(CO)C1)c1cc(Cl)n2c(CC3CCC(F)(F)CC3)c(C(F)(F)F)nc2c1` [Compound 95, N-[3,3-Bis(hydroxymethyl)cyclobutyl]-5-chloro-3-[(4,4-difluorocyclohexyl)methyl]-2-(trifluoromethyl)imidazo[1,2-a]pyridine-7-carboxamide], for which the IC50 is not above 100 nM.

On to `CC(C)(O)CNC(=O)c1cc(C#N)n2c(CC3CCC(F)(F)CC3)c(C(F)(F)F)nc2c1` [Compound 51, 5-Cyano-3-[(4,4-difluorocyclohexyl)methyl]-N-(2-hydroxy-2-methylpropyl)-2-(trifluoromethyl)imidazo[1,2-a]pyridine-7-carboxamide], for which the IC50 is not above 100 nM.

Consider `Cc1c(C(=O)NC2CCOCC2)cc2nc(C(F)(F)F)c(CC3CCC(F)(F)CC3)n2c1Cl` [Compound 195, 5-Chloro-3-[(4,4-difluorocyclohexyl)methyl]-6-methyl-N-(tetrahydro-2H-pyran-4-yl)-2-(trifluoromethyl)imidazo[1,2-a]pyridine-7-carboxamide], for which the IC50 is not above 100 nM.

In the case of `N#Cc1cc(C(=O)NCC2CCOC2)cc2nc(C(F)(F)F)c(CC3CCC(F)(F)CC3)n12` (stereo not drawn) [Compound 3, 5-Cyano-3-[(4,4-difluorocyclohexyl)methyl]-N-[(tetrahydrofuran-3-yl)methyl]-2-(trifluoromethyl)imidazo[1,2-a]pyridine-7-carboxamide], the IC50 is not above 100 nM.

Consider `Cc1ccc(Cc2c(C(F)(F)F)nc3cc(C(=O)NC4CCOCC4)cc(C)n23)cc1` [Compound 207, 5-Methyl-3-(4-methylbenzyl)-N-(tetrahydro-2H-pyran-4-yl)-2-(trifluoromethyl)imidazo[1,2-a]pyridine-7-carboxamide], for which the half-maximal inhibitory concentration (IC50) was not above 100 nM.

Turning to `CC(C)(Oc1ccccc1)c1c(C(F)(F)F)nc2cc(C(=O)Nc3ccccc3)ccn12` [Compound 163, 3-(2-Phenoxypropan-2-yl)-N-phenyl-2-(trifluoromethyl)imidazo[1,2-a]pyridine-7-carboxamide], under setting [1], the IC50 was not above 100 nM.

For the molecule `Cc1cc(C(=O)N[C@H]2C[C@@H]3CC[C@H]2O3)cc2nc(C(C)(F)F)c(Cc3ccc(Cl)cc3)n12` [Compound 215, N-[(1R,2S,4S)-7-Oxabicyclo[2.2.1]heptan-2-yl]-3-(4-chlorobenzyl)-2-(1,1-difluoroethyl)-5-methylimidazo[1,2-a]pyridine-7-carboxamide], under setting [1], the half-maximal inhibitory concentration (IC50) is not above 100 nM.

As for `O=C(CNC(=O)c1cc(Cl)n2c(CC3CCC(F)(F)CC3)c(C(F)(F)F)nc2c1)Nc1ccccc1` [Compound 151, 5-Chloro-3-[(4,4-difluorocyclohexyl)methyl]-N-[2-oxo-2-(phenylamino)ethyl]-2-(trifluoromethyl)imidazo[1,2-a]pyridine-7-carboxamide], the IC50 is not above 100 nM.

For the molecule `O=C(NCC1(CO)CC1)c1cc(Cl)n2c(CC3CCC(F)(F)CC3)c(C(F)(F)F)nc2c1` [Compound 174, 5-Chloro-3-[(4,4-difluorocyclohexyl)methyl]-N-{[1-(hydroxymethyl)cyclopropyl]methyl}-2-(trifluoromethyl)imidazo[1,2-a]pyridine-7-carboxamide], the IC50 is not above 100 nM.

Turning to `O=C(NC1CCOCC1)c1cc(C(F)F)n2c(CC3CCC(F)(F)CC3)c(C(F)(F)F)nc2c1` [Compound 48, 3-[(4,4-Difluorocyclohexyl)methyl]-5-(difluoromethyl)-N-(tetrahydro-2H-pyran-4-yl)-2-(trifluoromethyl)imidazo[1,2-a]pyridine-7-carboxamide], the IC50 was not above 100 nM.

As to `O=C(CNC(=O)c1cc(Cl)n2c(CC3CCC(F)(F)CC3)c(C(F)(F)F)nc2c1)NC1CCOC1` (stereo not drawn) [Compound 131, 5-Chloro-3-[(4,4-difluorocyclohexyl)methyl]-N-[2-oxo-2-(tetrahydrofuran-3-ylamino)ethyl]-2-(trifluoromethyl)imidazo[1,2-a]pyridine-7-carboxamide], the IC50 was not above 100 nM.

On to `C#Cc1cc(C(=O)NC2CCOCC2)cc2nc(C(F)(F)F)c(CC3CCC(F)(F)CC3)n12` [Compound 50, 3-[(4,4-Difluorocyclohexyl)methyl]-5-ethynyl-N-(tetrahydro-2H-pyran-4-yl)-2-(trifluoromethyl)imidazo[1,2-a]pyridine-7-carboxamide], for which the IC50 under setting [1] is not above 100 nM.

Regarding `O=C(Nc1ccccc1)c1cc2nc(C3CC(F)(F)C3)c(CC3CCC(F)(F)CC3)n2cc1Cl` [Compound 7, 6-Chloro-2-(3,3-difluorocyclobutyl)-3-[(4,4-difluorocyclohexyl)methyl]-N-phenylimidazo[1,2-a]pyridine-7-carboxamide], the IC50 is not above 100 nM.

Take `[2H]C([2H])([2H])OC(C)(C)CNC(=O)c1cc(CO)n2c(CC3CCC(F)(F)CC3)c(C(C)(F)F)nc2c1` [Compound 192, 3-[(4,4-Difluorocyclohexyl)methyl]-2-(1,1-difluoroethyl)-5-(hydroxymethyl)-N-(2-methoxy-d3-2-methylpropyl)imidazo[1,2-a]pyridine-7-carboxamide]: the IC50 is not above 100 nM.

For `Cc1cc(CC(=O)NOC2CCOCC2)cc2nc(C(F)(F)F)c(CC3CCC(F)(F)CC3)n12` [Compound 84, 2-{3-[(4,4-Difluorocyclohexyl)methyl]-5-methyl-2-(trifluoromethyl)imidazo[1,2-a]pyridin-7-yl}-N-(tetrahydro-2H-pyran-4-yloxy)acetamide], the half-inhibitory concentration (IC50) is not above 100 nM.

With `CC(C)c1nc2cc(C(=O)NCC(F)(F)F)cc(C#N)n2c1CC1CCC(F)(F)CC1` [Compound 171, 5-Cyano-3-[(4,4-difluorocyclohexyl)methyl]-2-isopropyl-N-(2,2,2-trifluoroethyl)imidazo[1,2-a]pyridine-7-carboxamide], the half-inhibitory concentration (IC50) is not above 100 nM.

For the molecule `CSC(C)(C)CNC(=O)c1cc2nc(C(F)(F)F)c(CC3CCC(F)(F)CC3)n2c(Cl)c1Cl` [Compound 213, 5,6-Dichloro-3-[(4,4-difluorocyclohexyl)methyl]-N-[2-methyl-2-(methylthio)propyl]-2-(trifluoromethyl)imidazo[1,2-a]pyridine-7-carboxamide], the IC50 is not above 100 nM.

As for `CC(F)(F)c1nc2cc(C(=O)NC3CCC(O)CC3)c(Cl)cn2c1CC1CCC(F)(F)CC1` (stereo not drawn) [Compound 25, 6-Chloro-3-[(4,4-difluorocyclohexyl)methyl]-2-(1,1-difluoroethyl)-N-(4-hydroxycyclohexyl)imidazo[1,2-a]pyridine-7-carboxamide], the IC50 is not above 100 nM.

In the case of `N#Cc1cc(C(=O)NOC2CCOCC2)cc2nc(C(F)(F)F)c(CC3CCC(F)(F)CC3)n12` [Compound 65], the IC50 is not above 100 nM.

Turning to `CC(F)(F)c1nc2cc(C(=O)NC3CCOCC3)cc(C#N)n2c1CC1CCC(F)(F)CC1` [Compound 159, 5-Cyano-3-[(4,4-difluorocyclohexyl)methyl]-2-(1,1-difluoroethyl)-N-(tetrahydro-2H-pyran-4-yl)imidazo[1,2-a]pyridine-7-carboxamide], the half-inhibitory concentration (IC50) is not above 100 nM.

Turning to `Cc1cc(C(=O)NC2CCOCC2)cc2nc(C(F)(F)F)c(Cc3ccc(F)cc3)n12` [Compound 212, 3-(4-Fluorobenzyl)-5-methyl-N-(tetrahydro-2H-pyran-4-yl)-2-(trifluoromethyl)imidazo[1,2-a]pyridine-7-carboxamide], the half-maximal inhibitory concentration (IC50) is not above 100 nM.

As for `O=C(Nc1ccccc1)c1cc2nc(C3CC3)c(CC3CCC(F)(F)CC3)n2cc1Cl` [Compound 6, 6-Chloro-2-cyclopropyl-3-[(4,4-difluorocyclohexyl)methyl]-N-phenylimidazo[1,2-a]pyridine-7-carboxamide], the concentration for half-maximal inhibition (IC50) was not above 100 nM.

As to `Cc1cc(C(=O)NC(C)(C)C)cc2nc(C(C)(F)F)c(CC3CCC(F)(F)CC3)n12` [Compound 218, N-tert-Butyl-3-[(4,4-difluorocyclohexyl)methyl]-2-(1,1-difluoroethyl)-5-methylimidazo[1,2-a]pyridine-7-carboxamide], the IC50 is not above 100 nM.
